US10751311B2, “Compositions and methods of using modified release solabegron for lower urinary tract symptoms” (VELICEPT THERAPEUTICS, INC., priority 2014, dated 2020)

Key:
beta-3 adrenoceptor [1] = biological target: T1, beta-3 adrenoceptor (Rattus norvegicus, UniProt P26255); experiment: Receptor desensitization: CCRC after incubation with the EC90 concentration and PSS washout, EFS-stimulated rat bladder strips; type: cell-based
T1 construct: The bladder longitudinal smooth muscle, with the urothelium still attached were mounted in 25 ml organ baths; from tissue; host or cells: isolated bladder longitudinal smooth muscle strips (urothelium attached) from male CD rats
T1 sequence (P26255 whole entry): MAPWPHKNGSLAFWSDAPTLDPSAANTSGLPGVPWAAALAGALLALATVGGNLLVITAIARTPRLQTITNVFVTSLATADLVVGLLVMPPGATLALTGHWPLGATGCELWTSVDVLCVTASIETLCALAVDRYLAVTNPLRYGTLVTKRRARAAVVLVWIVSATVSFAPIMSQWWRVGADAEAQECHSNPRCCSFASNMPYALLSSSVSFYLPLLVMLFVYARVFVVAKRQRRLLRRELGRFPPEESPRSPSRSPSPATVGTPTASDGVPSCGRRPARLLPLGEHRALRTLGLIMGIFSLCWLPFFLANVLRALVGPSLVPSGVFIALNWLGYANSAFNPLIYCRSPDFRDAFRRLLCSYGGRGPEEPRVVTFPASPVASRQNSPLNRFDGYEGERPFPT
Method: (§1) Macroscopically normal bladders obtained from Male CD rats (220-250 g) were used. […] Each bladder was cleaned free of surrounding connective tissue and halved longitudinally. The bladder longitudinal smooth muscle, with the urothelium still attached were mounted in 25 ml organ baths containing physiological saline solution (PSS) (composition: 119.0 mM NaCl, 4.7 mM KCl, 1.2 mM MgSO4, 24.9 mM NaHCO3, 1.2 mM KH2PO4, 2.5 mM CaCl2 and 11.1 mM glucose) supplemented with 1 μM prazosin (α1-adrenoceptor antagonist) and 30 nM ICI118551 (β2-adrenoceptor antagonist), aerated with 95% O2/5% CO2 gas mix, warmed and maintained at approximately 37° C. throughout the experiment. Changes in force production were recorded using transducers. After mounting, the bladder halves were allowed to equilibrate for at least 30 min before they were set to a stable tension of approximately 1.0 g. The tissue was then allowed to equilibrate over at least a 60 min period with washes every 15 min.
In initial experiments the parameters for the EFS were assessed by performing a frequency curve to determine a frequency that would give a response that was approximately 80% of the response seen to 80 mM KCl. Optimal EFS parameters were determined to be: 30 Volts, square pulse of 0.1 ms, train of 4 seconds every 120 seconds, 15 Hz. This frequency was then used to stimulate the tissue for all subsequent experiments. The viability of bladder strips was tested by stimulating the tissue with EFS for minimum of ten minutes.
The bladder muscle strips were incubated with the EC90 determined for each test compound in the pilot studies, for a period of 1 or 3 hr. Following compound incubation, the tissues were washed with PSS for a period of 1, 3 or 6 hr, with washes approximately every 15 min, to remove the drug. At the end of the final wash period the tissues were stimulated with EFS, and left to equilibrate for at least 30 min. A CCRC was then performed in each tissue. Tissue responses were calculated as the mean (SEM) and expressed as percentage of EFS induced tone.
Tissues were incubated with the EC90 concentration of the test compounds for one hr followed by one hr, three hr or six hr of washing with PSS. […] This EFS-induced potentiation of bladder contraction from baseline was not observed with solabegron.
In the next series of experiments, tissues were incubated with the EC90 concentration of the test compounds for three hr followed by either one hr, three hr or six hr of washing with PSS.

beta-3 adrenoceptor [2] = biological target: T1, beta-3 adrenoceptor; experiment: Determination of EC90 concentration to inhibit EFS-induced contraction in rat isolated bladder (pilot CCRC); type: cell-based; conditions: PSS with 1 μM prazosin and 30 nM ICI118551, EFS 15 Hz
Method: as §1, with “After mounting, the bladder halves were allowed to equilibrate for at least 30 min before they were set to a stable tension of approximately 1.0 g. The tissue was then allowed to equilibrate over at least a 60 min period with washes every 15 min.” left out
In initial experiments the parameters for the EFS were assessed by performing a frequency curve to determine a frequency that would give a response that was approximately 80% of the response seen to 80 mM KCl. Optimal EFS parameters were determined to be: 30 Volts, square pulse of 0.1 ms, train of 4 seconds every 120 seconds, 15 Hz. […]
Pilot studies to determine EC90 concentrations of the test compounds were performed. […] From the data obtained in these experiments, EC90 concentrations of the test compounds were determined for use in subsequent experiments. […]

[3] = Absorption of solabegron in regions of the GI tract; type: in vivo; conditions: solabegron and pharmaceutical salts thereof
Text: (§2) For example, some compounds are differentially absorbed in different regions of the GI tract. […] Under these improved conditions, a second release of solabegron and absorption will result. Additionally, methods for the release of solabegron in the distal GI tract based on pH are presented herein.

[4] = pH-dependent solubility of solabegron; type: physicochemical
Text: as §2

[5] = women with moderate to severe OAB; cited from earlier work
[6] = three hr incubation with EC90 concentration, one hr of washing

Row | Solubility [4] | SMILES | Response to agonist (CCRC, reduction of EFS-induced tone) versus vehicle-incubated tissue (beta-3 adrenoceptor [1]; [6]) | EC90 (beta-3 adrenoceptor [2]) [nM] | Absorption in the GI tract [3] | Response to agonist (CCRC, reduction of EFS-induced tone) versus vehicle-incubated tissue (beta-3 adrenoceptor [1]; one hr incubation with EC90 concentration, one hr of washing) | Response to agonist (CCRC, reduction of EFS-induced tone) versus vehicle-incubated tissue (beta-3 adrenoceptor [1]; one hr incubation with EC90 concentration, three hr of washing, higher concentrations) | Response to agonist (CCRC, reduction of EFS-induced tone) versus vehicle-incubated tissue (beta-3 adrenoceptor [1]; three hr incubation with EC90 concentration, three hr of washing, highest concentrations) | Effect on symptoms of overactive bladder [5] | Safety, tolerability, adverse events compared to placebo [5]
1 | – | C[C@H](Cc1ccc2c(c1)OC(C(=O)[O-])(C(=O)[O-])O2)NC[C@H](O)c1cccc(Cl)c1.[Na+].[Na+] [CL-316,243, reference compound] | significantly attenuated | 42 | – | – | – | – | – | –
2 | pH-dependent solubility | O=C(O)c1cccc(-c2cccc(NCCNC[C@H](O)c3cccc(Cl)c3)c2)c1 [solabegron, 3′-[(2-{[(2R)-2-(3-chlorophenyl)-2-hydroxyethyl]amino}ethyl)amino]biphenyl-3-carboxylic acid] | significantly attenuated | 1000 | optimum absorption in the proximal GI tract | significantly attenuated | significantly attenuated | significantly attenuated | significantly reduce the symptoms of overactive bladder | safe, well-tolerated, and does not demonstrate significant differences in adverse events as compared to placebo
